Results from patent US5266561A, “Treatment of type 2 diabetes mellitus” (Amylin Pharmaceuticals, Inc., priority 1991, dated 1993).
Where no end group is shown, it is not given here.

Columns and labels:
[1] = test system: rat islet cells; settings: literature statement; cited from earlier work
[2] = test system: rat islet cells; test: Glucose-stimulated insulin secretion from isolated rat islets of Langerhans; format: cell-based; settings: glucose 10 mmol/L; for RELATIVE INSULIN SECRETION INHIBITION: reduction from control
Method: All experiments were performed by known methods used in experimental practice. See, e.g., Lacey P E, and Kostianovsky M, Method for the isolation of intact islets of Langerhans from the rat Dancreas. Diabetes 1967; 16:35-39.
Briefly, rats were killed, and islets of Langerhans were isolated from their pancreases. Experiments were performed either with freshly isolated islets or after overnight incubation of islets (23 h) in standard culture medium and conditions at 37° C. […] Incubation of islets for these experiments was carried out in standard Krebs-Heinsleit buffer, and it was verified that the addition of the 1.0 mmol/L citrate buffer had no effect on the pH of the incubation medium. Stimulation of islets was carried out at the standard stimulatory glucose concentration of 10 mmol/L.
Production of insulin is expressed as μU/islet/h. All experiments were performed with five replicates per point. The integrity of the islet response was assessed by comparing the responses after stimulation of different aliquots of islets by two and ten mmol/L glucose, respectively, and the strength of the inhibitory response was judged against that induced by 1 μg/ml (650 nmol/L) somatostatin. […] See Arimura A. Biomed res 1981; 2:233-257. […] See Petterson M, Ahren B, Bottcher G, Sundler F, Endocrinology 1986; 119:865-869.
The results are shown in TABLE 5 below and all results are expressed as ± standard error of the mean (s.e.m.). The significance of differences between the means of groups is assessed by the t-test. The result of stimulation by 10 mmol/L glucose is compared with the results of stimulation at 2 mmol/L glucose. In all other experimental conditions, the significance of the inhibitory effect is measured against the effect of 10 mmol/L glucose alone.

[3] = biological target: T1, insulin receptor on red blood cells; test: Displacement of insulin from its receptor on red blood cells; format: binding
T1 construct: endogenous in cells; host or cells: red blood cells

Compound: C[C@H](N)C(=O)NCC(=O)N[C@H]1CSSC[C@@H](C(=O)O)NC(=O)[C@H](CO)NC(=O)[C@H]([C@@H](C)O)NC(=O)[C@H](Cc2ccccc2)NC(=O)[C@H]([C@@H](C)O)NC(=O)[C@H](CCCCN)NC(=O)[C@H](Cc2c[nH]c3ccccc23)NC(=O)[C@H](Cc2ccccc2)NC(=O)[C@H](Cc2ccccc2)NC(=O)[C@H](CC(N)=O)NC(=O)[C@H](CCCCN)NC1=O [Somatostatin, reference compound]
- inhibition of the insulin secretory response of islet B-cells to glucose [1]: known, potent inhibitor
- INSULIN PRODUCTION Mean value ([2]; 650 nmol/L): 44 μU/islet/hr
- RELATIVE INSULIN SECRETION INHIBITION ([2]; 650 nmol/L): 45%

Compound: CGRP 27-37 (FVPTNVGSKAF; ends and bridges not checked; UniProt P06881 109-119, looked up, fragment)
- INSULIN PRODUCTION Mean value ([2]; 10 nmol/L): 36 μU/islet/hr
- RELATIVE INSULIN SECRETION INHIBITION ([2]; 10 nmol/L): 55%
- INSULIN PRODUCTION Mean value ([2]; 100 nmol/L): 36 μU/islet/hr
- RELATIVE INSULIN SECRETION INHIBITION ([2]; 100 nmol/L): 55%
- INSULIN PRODUCTION Mean value ([2]; 1000 nmol/L): 46 μU/islet/hr
- RELATIVE INSULIN SECRETION INHIBITION ([2]; 1000 nmol/L): 42%

Compound: amylin: 37-residue peptide from pancreatic amyloid of Type 2 diabetics; source (synthetic or native) not stated at these places (KCNTATCATQRLANFLVHSSNNFGAILSSTNVGSNTY; Islet amyloid polypeptide; UniProt P10997 34-70, looked up)
- displacing insulin from its receptor on red blood cells [3]: not capable of significantly displacing insulin
